Experimental data published in article PMC8667898, “Topo II inhibition and DNA intercalation by new phthalazine-based derivatives as potent anticancer agents: design, synthesis, anti-proliferative, docking, and in vivo studies” (Journal of Enzyme Inhibition and Medicinal Chemistry, 2021).
Read-outs that look alike come from different tables or passages of the source.

Experiments:
[1] = system: HCT-116 cells (colorectal carcinoma); assay: MTT anti-proliferative assay, HCT-116; format: cell-based, human; conditions: for IC50: mean ± SD of three separate experiments, read-out: In vitro Cytotoxicity IC50 HCT-116
Procedure: (§1) Anti-proliferative activities of the target compounds were assessed via the standard MTT method[38–40] against three cancer cell lines, namely, hepatocellular carcinoma (HepG-2), colorectal carcinoma (HCT-116), and human breast adenocarcinoma (MCF-7). Doxorubicin was used in this test as a positive control.
(§2) Anti-proliferative activity of the synthesised compounds was estimated using the MTT assay protocol[8]^,[38–40] as shown in Supplementary data.
(§3) 4.2.1. In vitro anti-proliferative activity against MCF-7, HepG-2 and HCT-116 The cells were cultured in RPMI-1640 medium supplemented with 10% fetal bovine serum (FBS), penicillin (100 unit /mL) and streptomycin sulphate (100µg/mL) at 37 °C in a 5% CO2 incubator.
(§4) Then, cells were dropped in 96-well plates at a density of 3-8 × 10^3 cells/well and incubated for two days in a 5% CO2 incubator at 37 °C. Then, the cells were treated with the synthesized compounds and the cell cultures were continued incubated for 24 h. However, Different concentrations of the compound under test (0.0, 5.0, 12.5, 25.0 and 50 mg/ml) were added to the cell monolayer. Then, (3-[4,5-dimethylthiazol-2-yl]- 2,5-diphenyltetrazolium bromide) MTT solution (20 µl, 5mg/mL) was added to each well and incubated for additional 4 h. The formed purple crystals of MTT-formazan were dissolved in 100 µl DMSO each well; the absorbance of each well was measured at 570 nm using a plate reader (EXL 800, USA). All of the compounds were tested three times. The relative cell viability in percentage was calculated. The results for IC50 values of the active compounds are […]
(§5) The data represented the mean of three independent experiments in triplicate and were expressed as means ± SD. […]
(§6) of the cells could survive. […]

Calf thymus DNA = assay: DNA intercalation assay (DNA/methyl green colorimetric assay); format: binding; conditions: three independent experiments
Procedure: as §5
4.2.2. DNA intercalation assay (DNA/methyl green colorimetric assay)
Affinity of some compounds for DNA-binding was examined in vitro using DNA/methyl green assay using doxorubicin as a positive control. In this test, a mixture of methyl green (20 mg) and Calf thymus DNA (10 mg) (Sigma– Aldrich) were suspended in 0.05 M TrisHCl buffer (100 mL, pH 7.5) containing 7.5 mM MgSO4. This mixture was stirred continuously for 24 h at 37 °C. Then, ethanolic solution of the test compounds was pitted into the wells of a 96-well microtiter tray at a concentration of 10, 100 and 1000 µM. The excess solvent was removed from each well under vacuum, with subsequent addition of 200 µL of the DNA/methyl green solution. The test samples were incubated for 24 h in dark at ambient temperature. After that, absorbance of each sample was determined at 642.5–645 nm. In this test, the methyl green dye reversibly binds to DNA to form persistent colored complex of DNA/methyl green. This color still stables at neutral pH. When the DNA intercalators were added, the methyl green was displaced from DNA with addition of H2O molecule to the dye resulting in formation of the colorless carbinol leading to a decrease in spectrophotometric absorbance. ΔA value (the difference between DNA/methyl green complex and free cabinol) provides the simplest means for detecting the DNA-binding affinity and relative binding strength. IC50′s were determined by linear regression of data plotted on a semi -log scale and the data were compared with doxorubicin as standard DNA intercalator . […]

[2] = system: MCF-7 cells (human breast adenocarcinoma); assay: MTT anti-proliferative assay, MCF-7; format: cell-based; conditions: for IC50: mean ± SD of three separate experiments, read-out: In vitro Cytotoxicity IC50 MCF-7
Procedure: as §1, §2, §3, §4, §5, §6

[3] = system: HepG-2 cells (hepatocellular carcinoma); assay: MTT anti-proliferative assay, HepG-2; format: cell-based, human; conditions: for IC50: mean ± SD of three separate experiments, read-out: In vitro Cytotoxicity IC50 HepG-2
Procedure: Anti-proliferative activities of the target compounds were assessed via the standard MTT method[38–40] against three cancer cell lines, namely, hepatocellular carcinoma (HepG-2), colorectal carcinoma (HCT-116), and human breast adenocarcinoma (MCF-7).
as §2, §3
Then, cells were dropped in 96-well plates at a density of 3-8 × 10^3 cells/well and incubated for two days in a 5% CO2 incubator at 37 °C. Then, the cells were treated with the synthesized compounds and the cell cultures were continued incubated for 24 h. However, Different concentrations of the compound under test (0.0, 5.0, 12.5, 25.0 and 50 mg/ml) were added to the cell monolayer. Then, (3-[4,5-dimethylthiazol-2-yl]- 2,5-diphenyltetrazolium bromide) MTT solution (20 µl, 5mg/mL) was added to each well and incubated for additional 4 h. The formed purple crystals of MTT-formazan were dissolved in 100 µl DMSO each well; the absorbance of each well was measured at 570 nm using a plate reader (EXL 800, USA). All of the compounds were tested three times. The relative cell viability in percentage was calculated.
as §5

human Topo II = target: T1, human Topo II (Homo sapiens, UniProt P11388); assay: Topoisomerase II inhibitory activity (TopoGEN drug screening kit); format: biochemical; conditions: three independent experiments
T1 construct: purchased TopoGEN, Inc., Columbus
Procedure: The activity of topoisomerase II was determined according to the reported procedure described by Patra et al.[42]. […]
4.2.3. Measurement of topoisomerase II activity
Compounds (8a, 8b, 9a, 9c, 9d, 12a, and 12b) were further evaluated to assess their Topo II inhibitory activities. In this test, Topo II drug screening kit (TopoGEN, Inc., Columbus) was utilized to determine the Topo II activity. […] A typical enzyme […]
reaction contained a mixture of human Topo II (2 µL), substrate super coiled pHot1 DNA (0.25 µg), 50 µg/mL test compound (2 µL), and assay buffer (4 µL). The reaction started upon incubation of the mixture in 37 °C for 30 min. The reaction was terminated by addition of 10% sodium dodecylsulphate (2 µL) and proteinase K (50 µg/mL) at 37 °C for 15 min. followed by incubation for 15 min at 37 °C.
Then, the DNA was run on 1% agarose gel in BioRad gel electrophoresis system for 1–2 h followed by staining with GelRedTM stain for 2 h and destained for 15 min with TAE buffer. The gel was imaged Via BioRad’s Gel DocTMEZ system. Both supercoiled and linear strands DNA were incorporated in the gel as markers for DNA-Topo II intercalators. The results of IC50 values were calculated using the GraphPad Prism version 5.0. Each reaction was performed in duplicate, and at least three independent determinations of each IC50 were made.

[4] = ratio of IC50 values vs doxorubicin

T1 sequence (P11388 whole entry): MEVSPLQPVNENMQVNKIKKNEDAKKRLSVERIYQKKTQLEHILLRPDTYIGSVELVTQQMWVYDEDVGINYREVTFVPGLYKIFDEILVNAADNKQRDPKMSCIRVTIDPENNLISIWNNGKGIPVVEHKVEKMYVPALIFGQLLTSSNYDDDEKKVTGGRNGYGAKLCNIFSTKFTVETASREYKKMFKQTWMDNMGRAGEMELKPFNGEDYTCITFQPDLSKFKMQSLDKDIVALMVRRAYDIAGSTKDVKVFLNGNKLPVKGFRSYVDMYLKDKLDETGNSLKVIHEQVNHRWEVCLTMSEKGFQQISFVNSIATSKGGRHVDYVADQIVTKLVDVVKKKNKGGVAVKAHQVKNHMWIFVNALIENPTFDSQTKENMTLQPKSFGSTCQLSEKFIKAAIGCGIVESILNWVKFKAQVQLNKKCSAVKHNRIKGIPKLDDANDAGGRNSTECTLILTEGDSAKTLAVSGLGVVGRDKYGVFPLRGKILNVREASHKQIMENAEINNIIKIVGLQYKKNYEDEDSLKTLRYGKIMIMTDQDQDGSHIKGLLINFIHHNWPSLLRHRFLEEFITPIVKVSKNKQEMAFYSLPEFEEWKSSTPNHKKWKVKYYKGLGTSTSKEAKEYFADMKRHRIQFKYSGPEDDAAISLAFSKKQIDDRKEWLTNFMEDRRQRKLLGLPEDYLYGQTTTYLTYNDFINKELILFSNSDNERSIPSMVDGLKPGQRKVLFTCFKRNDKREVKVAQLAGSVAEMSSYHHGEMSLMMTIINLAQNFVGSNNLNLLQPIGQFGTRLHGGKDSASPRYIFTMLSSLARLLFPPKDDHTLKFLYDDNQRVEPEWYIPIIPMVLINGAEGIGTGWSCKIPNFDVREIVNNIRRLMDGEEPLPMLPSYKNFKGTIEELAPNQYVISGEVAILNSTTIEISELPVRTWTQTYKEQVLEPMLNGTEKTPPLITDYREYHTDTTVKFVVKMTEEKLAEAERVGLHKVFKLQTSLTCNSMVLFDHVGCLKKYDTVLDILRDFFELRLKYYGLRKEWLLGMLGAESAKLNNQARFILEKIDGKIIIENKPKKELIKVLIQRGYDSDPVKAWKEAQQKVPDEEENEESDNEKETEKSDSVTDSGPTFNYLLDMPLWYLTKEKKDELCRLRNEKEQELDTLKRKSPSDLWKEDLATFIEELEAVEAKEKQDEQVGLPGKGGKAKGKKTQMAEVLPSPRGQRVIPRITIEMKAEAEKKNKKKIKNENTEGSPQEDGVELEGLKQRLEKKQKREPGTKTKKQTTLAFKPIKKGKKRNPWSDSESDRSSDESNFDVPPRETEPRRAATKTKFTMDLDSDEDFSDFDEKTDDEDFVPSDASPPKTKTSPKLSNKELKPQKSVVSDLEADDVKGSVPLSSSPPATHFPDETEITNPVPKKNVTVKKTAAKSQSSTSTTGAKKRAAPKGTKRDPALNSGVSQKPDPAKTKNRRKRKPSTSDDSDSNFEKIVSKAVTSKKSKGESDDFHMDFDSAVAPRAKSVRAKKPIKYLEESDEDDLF

Compound	IC50 ([1]; Homo sapiens, HCT-116, MTT)	IC50 (Calf thymus DNA)	IC50 ([2]; Homo sapiens, MCF7, MTT)	IC50 ([3]; Homo sapiens, HepG2, MTT)	IC50 (human Topo II)	times more active than doxorubicin, HCT-116 [1, 4]	times more active than doxorubicin, MCF-7 [2, 4]	times more active than doxorubicin, HepG2 [3, 4]	IC50 ([1]; MTT)	IC50 ([2]; MTT)	IC50 ([3]; MTT)
CCCc1nnc2c3ccccc3c3nnc(SCC(=O)Nc4ccc(S(N)(=O)=O)cc4)n3n12 [Compound 14c, 2-[(6-Propylbis([1,2, 4]triazolo)[3,4-a:4',3'-c]phthalazin-3-yl)thio]-N-(4-sulfamoyl-phenyl)acetamide]	30.99 ± 0.11 µM	46.3 ± 2.3 µM	20.6 ± 0.88 µM	24.8 ± 0.88 µM	–	–	–	–	–	–	–
CCCc1nnc2c3ccccc3c(NN=Cc3ccc(F)cc3)nn12 [Compound 9b, 6-[2–(4-Fluorobenzylidene)hydrazineyl]-3-propyl-[1,2, 4]triazolo[3,4-a]phthalazine]	61.7 ± 1.89 µM	49.9 ± 2.53 µM	36 ± 0.98 µM	63.9 ± 1.02 µM	–	–	–	–	–	–	–
CCCc1nnc2c3ccccc3c(NN=Cc3ccc(O)cc3)nn12 [Compound 9c, 4-[(2–(3-Propyl-[1,2, 4]triazolo[3,4-a]phthalazin-6-yl)hydrazineylidene)methyl]-phenol]	78.5 ± 2.04 µM	–	57.8 ± 1.56 µM	56.3 ± 1.73 µM	21.4 ± 1.9 µM	–	–	–	–	–	–
CCCc1nnc2c3ccccc3c3nnc(SCC(=O)Nc4ccc(C(=O)O)cc4)n3n12 [Compound 14a, 4-[2-((6-Propylbis([1,2, 4]triazolo)[3,4-a:4',3'-c]phthalazin-3-yl)thio)acetamido]benzoic acid]	4.35 ± 0.19 µM	28.7 ± 1.71 µM	4.36 ± 0.2 µM	5.65 ± 0.25 µM	7.64 ± 0.66 µM	~2.28 times	~1.75 times	about 1.46 times	–	–	–
CCCc1nnc2c3ccccc3c3nnc(SCC(N)=O)n3n12 [Compound 15, 2-[(6-Propylbis([1,2, 4]triazolo)[3,4-a:4',3'-c]phthalazin-3-yl)thio]acetamide]	53.5 ± 1.55 µM	71.2 ± 3.11 µM	26.2 ± 0.77 µM	38.6 ± 1 µM	–	–	–	–	–	–	–
CCCc1nnc2c3ccccc3c(NNC(=S)NC3CCCCC3)nn12 [Compound 8b, N-Cyclohexyl-2–(3-propyl-[1,2, 4]triazolo[3,4-a]phthalazin-6-yl)hydrazine-1-carbothioamide]	10.9 to 14.9 µM	34.6 ± 1.1 µM	10.9 to 14.9 µM	10.9 to 14.9 µM	8.91 ± 0.77 µM	–	–	–	13.8 ± 0.44 µM	12.5 ± 0.32 µM	10.9 ± 0.34 µM
CCCc1nnc2c3ccccc3c(NNC(=O)NC3CCCCC3)nn12 [Compound 7a, N-Cyclohexyl-2–(3-propyl-[1,2, 4]triazolo[3,4-a]phthalazin-6-yl)hydrazine-1-carboxamide]	23.8 ± 0.81 µM	37.1 ± 2 µM	19.4 ± 0.62 µM	24.9 ± 0.8 µM	–	–	–	–	–	–	–
CCCc1nnc2c3ccccc3c(NNC(=S)NCC)nn12 [Compound 8a, N-Ethyl-2–(3-propyl-[1,2, 4]triazolo[3,4-a]phthalazin-6-yl)hydrazine-1-carbothioamide]	25 ± 0.7 µM	29.6 ± 1.41 µM	16.5 ± 0.43 µM	28.9 ± 0.67 µM	22.3 ± 2 µM	–	–	–	–	–	–
CCCc1nnc2c3ccccc3c(NN=Cc3ccc(Cl)cc3)nn12 [Compound 9a, 6-[2–(4-Chlorobenzylidene)hydrazineyl]-3-propyl-[1,2, 4]triazolo[3,4-a]phthalazine]	36.3 ± 1.1 µM	43.8 ± 2.22 µM	45.5 ± 1.22 µM	25.2 ± 0.7 µM	13.7 µM	–	–	–	–	–	–
CCCc1nnc2c3ccccc3c3nnc(SCC(=O)Nc4ccc([N+](=O)[O-])cc4)n3n12 [Compound 14b, N-(4-Nitrophenyl)-2-[(6-propylbis([1,2, 4]triazolo)[3,4-a:4',3'-c]phthalazin-3-yl)thio]acetamide]	10.9 to 14.9 µM	34.4 ± 2.8 µM	10.9 to 14.9 µM	10.9 to 14.9 µM	13.7 ± 1.02 µM	–	–	–	12.6 ± 0.45 µM	14.9 ± 0.55 µM	13.4 ± 0.4 µM
CCCc1nnc2c3ccccc3c(NNC(=O)Nc3ccccc3)nn12 [Compound 7b, N-Phenyl-2–(3-propyl-[1,2, 4]triazolo[3,4-a]phthalazin-6-yl)hydrazine-1-carboxamide]	48.6 ± 1.6 µM	36.6 ± 1.82 µM	50.7 ± 1.55 µM	45 ± 1.1 µM	–	–	–	–	–	–	–
